Test results taken from US20250218201A1, “ANALYZING PHENOTYPES OF CELLS” (priority 2023, published 2025).

Assays:
Assay type in all cases: cell-based
[1] = Annexin V / SYTOX AADvanced flow cytometry of cell death states; conditions: human, read-out: viable cells (flow cytometry, Annexin V/SYTOX staining)
Method: (§1) The REM-I platform was used to obtain images of cells at different states of dying than one another. More specifically, live, viable Jurkat (T Lymphocyte), Clone E6-1 cells were cultured in RPMI-1640 medium (ThermoFisher Scientific) with 10% fetal bovine serum (FBS) at 37° C. with 5% CO2. A suspension of the cells was prepared at a concentration of 2×10^6 cells/mL for apoptosis and necrosis induction. The following treatments were used to induce cell death (e.g., via apoptosis or necrosis) in different samples of the suspension.
(§2) Sample 2: Camptothecin (ab120115, Abcam), a DNA topoisomerase inhibitor, was administered to the suspension of Jurkat cells at a final concentration of 10 μM and incubated at 37° C. with 5% CO2 for six hours to induce apoptosis by perturbing topoisomerase I.
(§3) Sample 3: Staurosporine (ab120056, Abcam), a protein kinase inhibitor, was administered to the suspension of Jurkat cells at a final concentration of 2 μM and incubated at 37° C. with 5% CO2 for either three hours or for eighteen hours to induce apoptosis by G2/M cell cycle arrest.
(§4) Following treatment, each of the samples was split into two aliquots, one for use in REM-I morphology profiling and one for use in flow cytometry assessment. For morphology profiling, treated cells at a concentration of 3×10^6 cells per mL in a single cell suspension were run on the REM-I platform with a flow rate of about 300 cells/second, and more than about 40,000 images were captured. The data suite 190, described with reference to FIG. 1, was trained using the multi-dimensional feature vectors from the cells and used to generate reduced-dimensionality plots which will be described with reference to FIGS. 16, 17, and 18. For flow cytometry, 1×10^6 treated cells in 100 μL were incubated with 5 μL of PACIFIC BLUE™ Annexin V stock (per manufacturer recommendation) and 1 μL of SYTOX™ AADVANCED™ (A35136, ThermoFisher) for 30 minutes at room temperature and then analyzed with the BD FACSMELODY™ cell sorter and BD FACSCHORUS™ software (BD Biosciences, California).

[2] = test system: Jurkat (T Lymphocyte), Clone E6-1 cells; test: as above
Method: as §1, §2, §3, §4

[3] = test system: Jurkat (T Lymphocyte), Clone E6-1 cells; test: REM-I label-free high-dimensional morphology profiling (UMAP); conditions: 10 μM camptothecin, 6 hours, unstained brightfield images
Method: as §1
Sample 2: Camptothecin (ab120115, Abcam), a DNA topoisomerase inhibitor, was administered to the suspension of Jurkat cells at a final concentration of 10 μM and incubated at 37° C. with 5% CO2 for six hours to induce apoptosis by perturbing topoisomerase I. […]
Following treatment, each of the samples was split into two aliquots, one for use in REM-I morphology profiling and one for use in flow cytometry assessment. […] For flow cytometry, 1×10^6 treated cells in 100 μL were incubated with 5 μL of PACIFIC BLUE™ Annexin V stock (per manufacturer recommendation) and 1 μL of SYTOX™ AADVANCED™ (A35136, ThermoFisher) for 30 minutes at room temperature and then analyzed with the BD FACSMELODY™ cell sorter and BD FACSCHORUS™ software (BD Biosciences, California).

[4] = 2 μM staurosporine, eighteen hours
[5] = 2 μM staurosporine, three hours

Row | SMILES | viability at 3 h, 2 μM ([1]; Jurkat cells, 2 μM staurosporine, three hours) | dead cells (flow cytometry, Annexin V/SYTOX staining) [2, 4] | necrotic cells (flow cytometry, Annexin V/SYTOX staining) [2, 4] | apoptotic cells (flow cytometry, Annexin V/SYTOX staining) [2, 5] | dead cells (flow cytometry, Annexin V/SYTOX staining) [2, 5] | necrotic cells (flow cytometry, Annexin V/SYTOX staining) [2, 5] | morphological profile on UMAP compared to healthy cells of Sample 1 [3] | viability at 6 h, 10 μM ([1]; Jurkat (T lymphocyte), Clone E6-1 cells, 10 μM camptothecin, six hours, 37° C.) | apoptotic cells (flow cytometry, Annexin V/SYTOX staining) ([2]; 10 μM camptothecin, six hours, 37° C.)
1 | CN[C@@H]1C[C@H]2O[C@@](C)([C@@H]1OC)n1c3ccccc3c3c4c(c5c6ccccc6n2c5c31)C(=O)NC4 [staurosporine, Staurosporine] | 14.5% | 12.4% | 85.0% | 6.96% | 14.1% | 64.5% |  |  | 
2 | CC[C@@]1(O)C(=O)OCc2c1cc1n(c2=O)Cc2cc3ccccc3nc2-1 [Sample 2, Camptothecin] |  |  |  |  |  |  | morphological shift in the main population | 71% | 28.7%
